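How tested: cells in 96-well plates exposed to compound for 48 hours at five concentrations. The concentration for 50% growth inhibition is given as GI50.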 Active and inactive are the calls of the source. Rule as the data show it: active = GI50 up to about 1.1 µM and inactive = higher.
What was measured:
Test in all cases: NCI tumour cell line growth inhibition, 48 h
[1] = system: KM12
[2] = system: M14
[3] = system: SN12C
[4] = system: OVCAR-8
[5] = system: NCI/ADR-RES
[6] = system: HOP-92
[7] = system: HL-60
[8] = system: NCI-H460
[9] = system: HT-29
[10] = system: UACC-257
[11] = system: SR
[12] = system: SW-620
[13] = system: Hs-578T
[14] = system: HCT-116
[15] = system: UO-31
[16] = system: MDA-N
[17] = system: SF-268
[18] = system: SF-539
[19] = system: PC-3
[20] = system: Malme-3M
[21] = system: RPMI-8226
[22] = system: DU-145
[23] = system: HCC 2998
[24] = system: T47D
[25] = system: MCF7
[26] = system: CAKI-1
[27] = system: NCI-H226
[28] = system: A549
[29] = system: ACHN
[30] = system: CCRF-CEM
[31] = system: MDA-MB-231
[32] = system: SK-MEL-28
[33] = system: U-251
[34] = system: NCI-H23
[35] = system: SK-MEL-5
[36] = system: MDA-MB-435
[37] = system: OVCAR-3
[38] = system: K562
[39] = system: HOP-62
[40] = system: SNB-19
[41] = system: MOLT-4
[42] = system: NCI-H522
[43] = system: LOX IMVI
[44] = system: BT-549
[45] = system: HCT-15
[46] = system: IGROV-1
[47] = system: TK-10
[48] = system: 786-0
[49] = system: OVCAR-5
[50] = system: SF-295
[51] = system: A498
[52] = system: SNB-75
[53] = system: UACC-62
[54] = system: EKVX
[55] = system: COLO 205
[56] = system: OVCAR-4
[57] = system: SK-MEL-2
[58] = system: RXF 393
[59] = system: SK-OV-3

With `O=C1CC(C(O)CO)CC(=O)N1` (centres undefined) as the molecule, how does the GI50 [1] read?
Its GI50 is > 100 µM (inactive).

And the GI50 [2]?
The GI50 was > 100 µM (inactive).

And the GI50 [3]?
Its GI50 is > 100 µM (inactive).

And the GI50 [4]?
Its GI50 is > 100 µM (inactive).

And the GI50 [5]?
Its GI50 is > 100 µM (inactive).

And the GI50 [6]?
The GI50 was > 100 µM (inactive).

And the GI50 [7]?
Its GI50 is > 100 µM (inactive).

And the GI50 [8]?
Its GI50 is > 100 µM (inactive).

What about the GI50 [9] of the same molecule?
Its GI50 is > 100 µM (inactive).

And the GI50 [10]?
Its GI50 is > 100 µM (inactive).

And the GI50 [11]?
Its GI50 is > 100 µM (inactive).

And the GI50 [12]?
Its GI50 is > 100 µM (inactive).

What about the GI50 [13] of the same molecule?
Its GI50 is > 100 µM (inactive).

And the GI50 [14]?
Its GI50 is > 100 µM (inactive).

And the GI50 [15]?
Its GI50 is > 100 µM (inactive).

What about the GI50 [16] of the same molecule?
Its GI50 is > 100 µM (inactive).

And the GI50 [17]?
The GI50 was > 100 µM (inactive).

What about the GI50 [18] of the same molecule?
The GI50 was > 100 µM (inactive).

And the GI50 [19]?
Its GI50 is > 100 µM (inactive).

And the GI50 [20]?
The GI50 was > 100 µM (inactive).

What about the GI50 [21] of the same molecule?
Its GI50 is > 100 µM (inactive).

What about the GI50 [22] of the same molecule?
The GI50 was > 100 µM (inactive).

And the GI50 [23]?
The GI50 was > 100 µM (inactive).

What about the GI50 [24] of the same molecule?
Its GI50 is > 100 µM (inactive).

And the GI50 [25]?
The GI50 was > 100 µM (inactive).

And the GI50 [26]?
Its GI50 is > 100 µM (inactive).

And the GI50 [27]?
The GI50 was > 100 µM (inactive).

What about the GI50 [28] of the same molecule?
The GI50 was > 100 µM (inactive).

And the GI50 [29]?
Its GI50 is > 100 µM (inactive).

And the GI50 [30]?
Its GI50 is > 100 µM (inactive).

And the GI50 [31]?
Its GI50 is > 100 µM (inactive).

What about the GI50 [32] of the same molecule?
The GI50 was > 100 µM (inactive).

What about the GI50 [33] of the same molecule?
The GI50 was > 100 µM (inactive).

What about the GI50 [34] of the same molecule?
Its GI50 is > 100 µM (inactive).

What about the GI50 [35] of the same molecule?
The GI50 was > 100 µM (inactive).

And the GI50 [36]?
Its GI50 is > 100 µM (inactive).

And the GI50 [37]?
The GI50 was > 100 µM (inactive).

And the GI50 [38]?
The GI50 was > 100 µM (inactive).

And the GI50 [39]?
Its GI50 is > 100 µM (inactive).

And the GI50 [40]?
The GI50 was > 100 µM (inactive).

What about the GI50 [41] of the same molecule?
Its GI50 is > 10 µM (inactive).

What about the GI50 [42] of the same molecule?
Its GI50 is > 100 µM (inactive).

What about the GI50 [43] of the same molecule?
Its GI50 is > 100 µM (inactive).

What about the GI50 [44] of the same molecule?
The GI50 was > 100 µM (inactive).

What about the GI50 [45] of the same molecule?
The GI50 was over 100 µM.

And the GI50 [46]?
The GI50 was > 100 µM (inactive).

What about the GI50 [47] of the same molecule?
The GI50 was > 100 µM (inactive).

What about the GI50 [48] of the same molecule?
Its GI50 is > 100 µM (inactive).

What about the GI50 [49] of the same molecule?
The GI50 was > 100 µM (inactive).

And the GI50 [50]?
Its GI50 is > 100 µM (inactive).

And the GI50 [51]?
Its GI50 is > 100 µM (inactive).

Which GI50 [1] does the source give for `CCOC(=O)c1nc2cc(N3CCOCC3)c(F)cc2[nH]c1=O` here?
Its GI50 is > 100 µM (inactive).

What about the GI50 [2] of the same molecule?
Its GI50 is > 100 µM (inactive).

What about the GI50 [52] of the same molecule?
Its GI50 is 52 µM (inactive).

And the GI50 [3]?
Its GI50 is > 100 µM (inactive).

What about the GI50 [4] of the same molecule?
Its GI50 is 86.9 µM (inactive).

And the GI50 [5]?
The GI50 was > 100 µM (inactive).

What about the GI50 [6] of the same molecule?
Its GI50 is 37.9 µM (inactive).

What about the GI50 [7] of the same molecule?
The GI50 was 19.8 µM (inactive).

And the GI50 [8]?
The GI50 was > 100 µM (inactive).

And the GI50 [9]?
Its GI50 is 69.8 µM (inactive).

What about the GI50 [10] of the same molecule?
The GI50 was > 100 µM (inactive).

What about the GI50 [11] of the same molecule?
Its GI50 is 54.2 µM (inactive).

What about the GI50 [12] of the same molecule?
Its GI50 is > 100 µM (inactive).

And the GI50 [53]?
Its GI50 is 92.9 µM (inactive).

And the GI50 [54]?
The GI50 was 4.67 µM (inactive).

And the GI50 [13]?
Its GI50 is 33.4 µM (inactive).

And the GI50 [14]?
The GI50 was > 100 µM (inactive).

And the GI50 [15]?
Its GI50 is 35.2 µM (inactive).

And the GI50 [16]?
Its GI50 is > 100 µM (inactive).

And the GI50 [17]?
The GI50 was > 100 µM (inactive).

What about the GI50 [18] of the same molecule?
The GI50 was > 100 µM (inactive).

And the GI50 [19]?
Its GI50 is > 100 µM (inactive).

What about the GI50 [20] of the same molecule?
Its GI50 is > 100 µM (inactive).

And the GI50 [21]?
The GI50 was > 100 µM (inactive).

And the GI50 [22]?
The GI50 was > 100 µM (inactive).

What about the GI50 [55] of the same molecule?
Its GI50 is > 100 µM (inactive).

What about the GI50 [23] of the same molecule?
The GI50 was > 100 µM (inactive).

And the GI50 [24]?
Its GI50 is > 100 µM (inactive).

And the GI50 [25]?
The GI50 was > 100 µM (inactive).

What about the GI50 [26] of the same molecule?
Its GI50 is > 100 µM (inactive).

What about the GI50 [27] of the same molecule?
The GI50 was 20.3 µM (inactive).

What about the GI50 [28] of the same molecule?
The GI50 was > 100 µM (inactive).

What about the GI50 [29] of the same molecule?
The GI50 was > 100 µM (inactive).

What about the GI50 [30] of the same molecule?
Its GI50 is 91.8 µM (inactive).

What about the GI50 [56] of the same molecule?
The GI50 was > 100 µM (inactive).

And the GI50 [31]?
The GI50 was > 100 µM (inactive).

What about the GI50 [32] of the same molecule?
The GI50 was > 100 µM (inactive).

And the GI50 [33]?
The GI50 was > 100 µM (inactive).

And the GI50 [34]?
The GI50 was > 100 µM (inactive).

What about the GI50 [35] of the same molecule?
The GI50 was > 100 µM (inactive).

What about the GI50 [36] of the same molecule?
Its GI50 is > 100 µM (inactive).

And the GI50 [57]?
The GI50 was > 100 µM (inactive).

And the GI50 [37]?
The GI50 was > 100 µM (inactive).

And the GI50 [38]?
The GI50 was > 100 µM (inactive).

And the GI50 [39]?
The GI50 was 57.5 µM (inactive).

And the GI50 [40]?
Its GI50 is > 100 µM (inactive).

What about the GI50 [41] of the same molecule?
The GI50 was > 100 µM (inactive).

What about the GI50 [42] of the same molecule?
The GI50 was 67.9 µM (inactive).

And the GI50 [44]?
Its GI50 is > 100 µM (inactive).

What about the GI50 [45] of the same molecule?
The GI50 was over 100 µM.

And the GI50 [58]?
The GI50 was > 100 µM (inactive).

What about the GI50 [59] of the same molecule?
Its GI50 is > 100 µM (inactive).

And the GI50 [46]?
The GI50 was 39 µM (inactive).

What about the GI50 [47] of the same molecule?
Its GI50 is > 100 µM (inactive).

What about the GI50 [48] of the same molecule?
Its GI50 is > 100 µM (inactive).

And the GI50 [49]?
Its GI50 is 64.3 µM (inactive).

What about the GI50 [50] of the same molecule?
The GI50 was 83.4 µM (inactive).

And the GI50 [51]?
The GI50 was > 100 µM (inactive).

From ChEMBL document CHEMBL1201862, “PubChem BioAssay data set” (2004)
